Source: patent US9174965B2, “Pyrimidinylpiperidinyloxypyridone analogues as GPR119 modulators” (BRISTOL-MYERS SQUIBB COMPANY, priority 2012, dated 2015)
Where two headings read alike, the source gives them in different places.

Columns and labels:
[1] = Compound bioavailability assay in rats; type: in vivo; conditions: male, Sprague-Dawley, plasma, rat, oral
Method: Compound Bioavailability Assays
Male Sprague-Dawley rats (270-350 g) were used in the pharmokinetic studies. Two (2) groups of animals (N=3 per group) were fasted overnight and one group received test compound as an IV infusion dose (1 mg/kg over 10 minutes) via a jugular vein in PEG-400/propylene glycol/ethanol (50:40:10) or Cremophor-EL/PEG400/water (10:40:50, v/v/v). The other group received test compound by oral gavage (2 or 5 mg/kg) as either nano-suspension in Pluronic F-108/polyvinylpyrrolidinone/water (1:2.5:96.5, v/v/v) or in Methocel A4M/Tween 80/water (0.5:0.1:99.4, v/v/v) as suspension (partical size: d50=0.960 μm; d90=4.4 μm) for oral dosing. […]
Pharmacokinetic parameters were obtained by non-compartmental analysis of plasma concentration vs. time data (KINETICA™ software, Version 5.0, Thermo Fisher Scientific Corporation, Philadelphia, Pa.). The peak concentration (Cmax) and time for Cmax (Tmax) were recorded directly from experimental observations. The area under the curve from time zero to the last sampling time [AUC(0-T)] and the area under the curve from time zero to infinity [AUC(INF)] were calculated using a combination of linear and log trapezoidal summations. […] Estimations of AUC and T-HALF were made using a minimum of 3 timepoints with quantifiable concentrations. […]

[2] = target: sodium channel SCN5A (Homo sapiens (Human), UniProt Q14524); test: Patch clamp electrophysiology assay, sodium channel; type: cell-based; conditions: pH 7.4, 10 μM, HEK293, read-out: Na % Inhibition
Method: Compound Electrophysiology Assays
Recombinant ion channels (hERG, sodium [SCN5A], and L-type calcium [Cav1.2]) stably expressed in human embryonic kidney cells (HEK293) are used as test systems, and each system is tested using 2-3 replicates in the conventional patch clamp assay.
Ion channel membrane current recordings are made with a Multiclamp 700 series integrating patch-clamp amplifier (Axon Instruments, Foster City, Calif.) using the whole-cell variant of the patch-clamp technique.
Cells expressing hERG, sodium [SCN5A], or L-type calcium [Cav1.2] channels are placed in a plexiglass bath chamber, mounted on the stage of an inverted microscope, and perfused continuously with bath solution.
The sodium current bath solution contains (in mM): 70 NaCl, 70 NMDG, 4 KCl, 1.8 CaCl2, 1 MgCl2, 10 glucose, 10 HEPES (pH 7.4, NaOH). The patch pipette filling solution used in sodium experiments contains (in mM): 130 KCl, 1 MgCl2, 1 CaCl2, 5 ATP-K2, 10 EGTA, 10 HEPES (pH 7.2, KOH).
For determining steady state inhibition, sodium currents are elicited every 5 seconds (0.2 Hz) using the following voltage protocol. Cells are held at a potential of −90 mV and stepped to −20 mV for 45 ms. The peak sodium current in response to the depolarizing step to −20 mV is monitored in the control buffer and after application of test article until a new steady state in the presence of the test article is achieved. To assess the rate dependent inhibition of the sodium currents, trains of voltage steps at frequencies of 1 and 4 Hz (30 sweeps each) are applied to the cell prior to application of test article (control) and after steady state inhibition by test article, as determined at 0.2 Hz frequency. The voltage waveform used in the rate dependence experiments is the same as the waveform used for evaluating steady state inhibition at 0.2 Hz stimulation frequency. Rate dependent inhibition is calculated by comparing the 30th voltage sweep in presence of test article to the 30th voltage sweep under control conditions at each frequency tested.
Compounds are tested in 3 cells at each concentration in each ion channel assay. Currents are sampled at rates at least 2 times the low pass filter rate. The flow rate is kept constant throughout the experiments. All currents were recorded at room temperature ˜25° C. IC50 values are calculated using the sigmoidal concentration-response equation Y=A+((B−A)/(1+((C/X)^D))) in XLfit where A and B are the minimum and maximum % inhibition, C is the IC50 and D is the slope factor.
Find below in Table 11 data for compared compounds (See WO 2011/127106 A1).

[3] = tested on: male C57BL/6J mice; test: Mouse oral glucose tolerance test; type: in vivo; conditions: for Glucose Lowering: at the minimally efficacious dose, plasma glucose AUC in oGTT; for Minimally efficacious Dose: oGTT in C57BL/6J mice
Method: Mouse Oral Glucose Tolerance Test
Twenty four (24) male C57BL/6J mice (8-10 weeks old, average weight 28 g) were randomized into 4 groups (1 mouse/cage) of 6 mice per group based on fed plasma glucose and body weight. Prior to initiating the study, mice were fasted overnight and the next morning they were weighed and placed in the experimental lab. After 30 min in the environment, the mice were bled via tail tip at −60 min and immediately given their first oral administration of vehicle (40% PEG400, 10% Cremophor EL, 50% water) or compound solutions (5 ml/kg). At time 0 the mice were bled and given 50% glucose (2 g/kg) to initiate the oral glucose tolerance test (oGTT). The mice were bled 30, 60 and 120 min after the glucose load. Blood samples were drawn into potassium EDTA, placed on ice during the study and subsequently centrifuged for 10 min at 3000 rpm at 4° C. Plasma samples were diluted 11-fold for glucose analysis in the COBAS MIRA® System (Roche Diagnostics). Area under the curve was calculated from the plasma glucose time course data using the trapezoid rule with fasting plasma glucose as the baseline (GraphPad Prism Software). The statistical significance of the changes in the glucose AUCs resulting from the different treatments was determined by one-way ANOVA followed by Dunnett's test using the vehicle group as the control (JMP software, release 5.1.2).
Find below in Table 7 data for compared compounds (See WO 2009/012275 A1).

sodium channel SCN5A, sequence (Q14524 whole entry): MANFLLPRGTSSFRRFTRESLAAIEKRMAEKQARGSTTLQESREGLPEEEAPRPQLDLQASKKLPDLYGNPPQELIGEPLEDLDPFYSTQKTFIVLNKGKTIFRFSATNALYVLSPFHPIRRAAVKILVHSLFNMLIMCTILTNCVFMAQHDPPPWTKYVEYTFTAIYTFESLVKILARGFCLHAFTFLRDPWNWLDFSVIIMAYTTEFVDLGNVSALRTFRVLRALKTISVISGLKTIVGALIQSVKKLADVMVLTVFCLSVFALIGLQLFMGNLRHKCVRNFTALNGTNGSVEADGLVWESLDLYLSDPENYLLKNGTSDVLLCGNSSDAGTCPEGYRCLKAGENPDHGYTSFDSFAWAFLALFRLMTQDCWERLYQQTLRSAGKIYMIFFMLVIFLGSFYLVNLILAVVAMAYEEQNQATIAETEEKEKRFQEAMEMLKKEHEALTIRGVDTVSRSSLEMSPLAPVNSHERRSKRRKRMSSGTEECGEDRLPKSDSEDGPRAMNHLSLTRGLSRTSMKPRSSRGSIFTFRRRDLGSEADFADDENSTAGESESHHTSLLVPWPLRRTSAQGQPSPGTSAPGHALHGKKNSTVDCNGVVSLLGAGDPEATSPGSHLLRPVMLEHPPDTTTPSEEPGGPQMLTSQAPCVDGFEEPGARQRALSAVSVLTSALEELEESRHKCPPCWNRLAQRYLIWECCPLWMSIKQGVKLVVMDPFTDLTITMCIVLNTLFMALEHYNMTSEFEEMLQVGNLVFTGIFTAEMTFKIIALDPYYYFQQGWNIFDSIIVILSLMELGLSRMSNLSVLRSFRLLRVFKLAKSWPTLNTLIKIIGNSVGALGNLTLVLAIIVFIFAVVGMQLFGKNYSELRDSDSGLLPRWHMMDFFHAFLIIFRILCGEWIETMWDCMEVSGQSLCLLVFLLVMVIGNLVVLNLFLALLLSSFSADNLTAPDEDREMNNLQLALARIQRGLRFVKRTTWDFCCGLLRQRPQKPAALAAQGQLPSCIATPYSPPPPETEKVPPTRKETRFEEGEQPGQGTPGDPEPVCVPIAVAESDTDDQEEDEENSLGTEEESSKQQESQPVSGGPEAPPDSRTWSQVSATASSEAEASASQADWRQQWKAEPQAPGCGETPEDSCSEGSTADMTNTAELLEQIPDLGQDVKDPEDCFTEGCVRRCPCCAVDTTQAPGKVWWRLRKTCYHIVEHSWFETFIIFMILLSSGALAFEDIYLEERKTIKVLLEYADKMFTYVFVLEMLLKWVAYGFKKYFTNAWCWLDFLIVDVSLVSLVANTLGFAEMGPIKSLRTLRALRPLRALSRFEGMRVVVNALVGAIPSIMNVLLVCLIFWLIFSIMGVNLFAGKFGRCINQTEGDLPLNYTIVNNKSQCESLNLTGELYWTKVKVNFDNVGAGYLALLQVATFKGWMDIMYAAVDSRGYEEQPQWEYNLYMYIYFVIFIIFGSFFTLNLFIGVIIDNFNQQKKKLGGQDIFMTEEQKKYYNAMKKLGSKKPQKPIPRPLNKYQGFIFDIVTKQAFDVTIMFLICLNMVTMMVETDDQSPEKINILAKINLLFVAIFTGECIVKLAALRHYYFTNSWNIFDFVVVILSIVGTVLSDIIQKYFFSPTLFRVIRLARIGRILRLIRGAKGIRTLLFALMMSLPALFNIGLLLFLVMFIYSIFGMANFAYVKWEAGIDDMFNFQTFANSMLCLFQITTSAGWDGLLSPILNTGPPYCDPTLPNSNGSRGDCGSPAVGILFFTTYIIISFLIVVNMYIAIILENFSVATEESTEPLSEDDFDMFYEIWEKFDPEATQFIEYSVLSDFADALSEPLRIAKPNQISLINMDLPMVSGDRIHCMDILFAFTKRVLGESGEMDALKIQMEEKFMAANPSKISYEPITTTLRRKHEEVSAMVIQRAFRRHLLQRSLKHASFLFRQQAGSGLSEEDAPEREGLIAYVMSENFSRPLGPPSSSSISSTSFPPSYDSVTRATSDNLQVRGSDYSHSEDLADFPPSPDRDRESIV

SMILES | bioavailability ([1]; 5 mg/kg as a microsuspension) [%] | inhibition at 10 µM ([2]; 1 Hz) [%] | inhibition at 10 µM ([2]; 4 Hz) [%] | Glucose Lowering [3] [%] | Minimally efficacious Dose [3] [mg/kg] | bioavailability ([1]; 2 mg/kg as a microsuspension) [%] | inhibition at 10 µM ([2]; human, 1 Hz) [%] | inhibition at 10 µM ([2]; human, 4 Hz) [%]
Cc1nc(-n2cc(Cl)c(OC3CCN(c4ncc(Cl)cn4)CC3)cc2=O)ccc1N1CC[C@H](O)C1=O [Example 3, (S)-5-chloro-4-((1-(5-chloropyrimidin-2-yl)piperidin-4-yl)oxy)-5′-(3-hydroxy-2-oxopyrrolidin-1-yl)-6′-methyl-2H-[1,2′-bipyridin]-2-one] | 120 | 14 | 23 | −26 | 0.03 | – | – | –
Cc1nc(-n2cc(Cl)c(OC3CCN(c4ncc(Cl)cn4)CC3)cc2=O)ccc1N1CC[C@@H](O)C1=O [Example 4, (R)-5-chloro-4-((1-(5-chloropyrimidin-2-yl)piperidin-4-yl)oxy)-5′-(3-hydroxy-2-oxopyrrolidin-1-yl)-6′-methyl-2H-[1,2′-bipyridin]-2-one] | – | 6 | 7 | −39 | 0.03 | 122 | 6 | 7
